{
  "source": "patent US6537995B2",
  "about": "“Heterocyclic carboxamides” (Pfizer Inc., priority 1998, dated 2003)",
  "data": [
    {"values": [
      {"smiles": "CN1CCN(c2ccccc2-c2ccc(C(=O)NCc3ccc(Cl)cc3)[nH]2)CC1.Cl", "melting point": "80 °C (dec.)"},
      {"smiles": "CN1CCN(c2ccccc2-c2ccc(C(=O)Nc3ccc(Cl)cc3)s2)CC1.Cl", "melting point": "149 °C (dec.)"},
      {"smiles": "COc1ccc(CNC(=O)c2ccc(-c3ccccc3N3CCN(C)CC3)s2)cc1.Cl", "melting point": "140 °C (dec.)"},
      {"smiles": "CN1CCN(c2ccccc2-c2ccc(C(=O)NCc3ccc(Cl)cc3)o2)CC1.Cl.O", "note": "(hydrate or solvate)", "melting point": "110 °C (dec.)"},
      {"smiles": "CN1CCN(c2ccc(F)cc2-c2ccc(C(=O)NCc3ccc(Cl)cc3)s2)CC1.O", "note": "(hydrate or solvate)", "melting point": "175 to 176.5 °C"},
      {"smiles": "CN1CCN(c2ccccc2-c2ccc(C(=O)Nc3ccc(Cl)cc3)o2)CC1.Cl.O", "note": "(hydrate or solvate)", "melting point": "145 °C (dec.)"},
      {"smiles": "CN1CCN(c2ccccc2-c2ccc(C(=O)NCc3ccc(Cl)cc3)s2)CC1.Cl.O", "note": "(hydrate or solvate)", "melting point": "256 to 257 °C"},
      {"smiles": "CN1CCN(c2ccccc2-c2ccc(C(=O)NCc3ccccc3)s2)CC1.Cl.O.O", "note": "(hydrate or solvate)", "melting point": "145 °C (dec.)"},
      {"smiles": "CN1CCN(c2ccccc2-c2ccc(C(=O)NCc3ccc(F)cc3)s2)CC1.Cl.O", "note": "(hydrate or solvate)", "melting point": "187 to 188 °C"}
    ]}
  ]
}
